Measurements as given in patent US5798336A, “Antimicrobial peptides” (priority 1995, dated 1998).
Where a SMILES comes first, the peptide text is derived from it.

Columns and labels:
S. aureus strain 8325-4 [1] = system: S. aureus strain 8325-4
P. aeruginosa = assay: Bactericidal capacity of cathepsin G in 1% TSB, P. aeruginosa; type: cell-based, Pseudomonas aeruginosa; details: Table 11, 50 μg/ml, 2 h at 37° C.
S. aureus = type: cell-based, Staphylococcus aureus; details: Table 11; 50 μg/ml; 1% TSB, 2 h at 37° C.
[2] = system: N. gonorrhoeae strain FA 102
[3] = system: P. aeruginosa clinical isolates; type: cell-based, Pseudomonas aeruginosa; details: four independent clinical isolates
Description: P. aeruginosa ATCC 27853 (American Type Culture Collection, Rockville, Md.) is the strain used for testing antimicrobial activity against P. aeruginosa unless otherwise noted. It is a standardized strain for antibiotic-susceptibility testing of pseudomonads (see, e.g., Code of Federal Regulations, Title 21, Part 460, 1987). […] Agents effective against P. aeruginosa are needed in the art because multiple antibiotic resistance is quite common among clinical strains, and therefore resultant infections are often difficult to treat.
^1 3-5 × 10^7 CFU/ml of the designated strains were exposed
to 500 μg/ml of HPLCpurified peptides in 1/100 strength BHSS (10 mm
sodium phosphate, pH 7.0, 10 mM NaCl.

S. aureus strain 8325-4 [4] = details: strain 8325-4, 500
P. aeruginosa ATCC 27853 = details: Table 7A; RP-HPLC-purified peptides 500 μg/ml

Compound: enzymatically active Cat G: cathepsin G purified from extracts of human PMN granules
- ED50 for S. aureus (S. aureus strain 8325-4 [1]; HBSS, optimal conditions): 4 µM
- Log Reduction in CFU/ml P. aeruginosa (P. aeruginosa): 2.41 log
- Log Reduction in CFU/ml S. aureus (S. aureus): 2.82 log

Compound: N=C(N)NCCC[C@H](NC(=O)[C@H](CCC(N)=O)NC(=O)[C@H](CC(N)=O)NC(=O)[C@H](Cc1ccc(O)cc1)NC(=O)[C@H](CCC(N)=O)NC(=O)[C@@H]1CCCN1C(=O)[C@@H](N)Cc1c[nH]cn1)C(=O)O [HPQYNQR] (H-HPQYNQR-OH)
- ED50 for N. gonorrhoeae [2]: 50 µM

Compound: O=C(N[C@H](CO)[C@H](O)c1ccc([N+](=O)[O-])cc1)C(Cl)Cl [Chloramphenicol, reference compound]
- bactericidal capacity compared with antibiotics and defensin pool (in words) ([2]; N. gonorrhoeae strain FA 102, each compound 5.0×10^-4 M, 30 min at 37° C., FIG. 5): more effective at this concentration than the defensin pool or the test peptides

Compound: CC[C@H](C)[C@H](NC(=O)[C@H](Cc1c[nH]c2ccccc12)NC(=O)[C@@H]1CCCN1C(=O)[C@H](CC(C)C)NC(=O)[C@H](Cc1ccccc1)NC(=O)[C@H](CO)NC(=O)[C@H](CO)NC(=O)[C@@H](NC(=O)[C@H](Cc1ccccc1)NC(=O)[C@H](CCCNC(=N)N)NC(=O)[C@@H](NC(=O)[C@H](Cc1ccccc1)NC(=O)[C@@H](NC(=O)[C@H](CCC(=O)O)NC(=O)[C@@H]1CCCN1C(=O)[C@@H]1CCCN1C(=O)[C@@H](NC(=O)CNC(=O)[C@H](CO)NC(=O)[C@H](CO)NC(=O)[C@H](CCCCN)NC(=O)CN)C(C)C)C(C)C)[C@@H](C)O)C(C)C)C(=O)N[C@@H](CCCNC(=N)N)C(=O)N[C@H](C(=O)N[C@H](C(=O)N[C@@H](CCSC)C(=O)N[C@@H](CCCNC(=N)N)C(=O)O)[C@@H](C)O)[C@@H](C)O [CG 198-223] (H-GKSSGVPPEVFTRFVSSFLPWIRTTMR-OH; N-terminus and C-terminus assumed)
- killing of P. aeruginosa clinical strains (in words) [3]: some variability in effectiveness
- Log Kill (500 μg/ml) S. aureus strain 8325-4 (S. aureus strain 8325-4 [4]): 0.26 log
- Log Kill (500 μg/ml) P. aeruginosa ATCC 278533 (P. aeruginosa ATCC 27853): 5.73 log

Compound: CC[C@H](C)[C@H](N)C(=O)N[C@H](C(=O)NCC(=O)NCC(=O)N[C@@H](CCCNC(=N)N)C(=O)O)[C@@H](C)CC [IIGGR] (H-IIGGR-OH)
- ED50 (S. aureus strain 8325-4 [1]): 430 µM
